Test results published in ChEMBL document CHEMBL1201862, “PubChem BioAssay data set” (2004).
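Values below derive from 48-hour exposures of cells grown in 96-well plates, with endpoints linearly interpolated between the two concentrations bracketing the appropriate inhibition level. GI50 marks 50% less growth.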 Calls of active or inactive are those of the source. Rule as the data show it: active = GI50 up to about 1.1 µM and inactive = higher. Numbered stars: 1 amine (or outer) side, 2 acyl side, 3 side chain; on linkers, the order of the positions; unused ones are H or OH. Square brackets hold non-standard residues; d marks the D form. Peptide text beside a SMILES is read from it. X55 = CC[C@H](C)[C@H](OC(=O)[C@@H](C)[C@@H](CC)N[*:1])C(=O)[*:2]; X31 = C[C@H](N[*:1])C(=O)C(C)(C)C(=O)[*:2]; NMeY = CN[C@@H](Cc1ccc(O)cc1)C(=O)O; NMeL = CN[C@@H](CC(C)C)C(=O)O; NMeV = CN[C@H](C(=O)O)C(C)C

Tests used:
Assay in all cases: DTP human tumour cell line panel, 48 h
CAKI-1 = system: CAKI-1
RPMI-8226 = system: RPMI-8226
HCT-15 = system: HCT-15
K562 = system: K562
SF-295 = system: SF-295
KM12 = system: KM12
SNB-78 = system: SNB-78
HOP-62 = system: HOP-62
ACHN = system: ACHN
UO-31 = system: UO-31
NCI-H522 = system: NCI-H522
HCT-116 = system: HCT-116
SR = system: SR
TK-10 = system: TK-10
U-251 = system: U-251
SK-MEL-5 = system: SK-MEL-5
MDA-MB-231 = system: MDA-MB-231
PC-3 = system: PC-3
T47D = system: T47D
MDA-MB-435 = system: MDA-MB-435

Row | Compound | GI50 (CAKI-1) | GI50 (RPMI-8226) | GI50 (HCT-15) [µM] | GI50 (K562) | GI50 (SF-295) | GI50 (KM12) | GI50 (SNB-78) | GI50 (HOP-62) | GI50 (ACHN) | GI50 (UO-31) | GI50 (NCI-H522) | GI50 (HCT-116) | GI50 (SR) | GI50 (TK-10) | GI50 (U-251) | GI50 (SK-MEL-5) | GI50 (MDA-MB-231) | GI50 (PC-3) | GI50 (T47D) | GI50 (MDA-MB-435)
1 | NC(=O)N/N=C1/CCCC/C1=C\c1ccccc1 | > 100 µM (inactive) | > 100 µM (inactive) | > 100 | > 100 µM (inactive) | > 100 µM (inactive) | > 100 µM (inactive) | > 100 µM (inactive) | > 100 µM (inactive) | > 100 µM (inactive) | 80.9 µM (inactive) | > 100 µM (inactive) | > 100 µM (inactive) | > 100 µM (inactive) | > 100 µM (inactive) | > 100 µM (inactive) | > 100 µM (inactive) |  |  |  | 
2 | N#C/C(=C\c1ccccc1)C(NO)Nc1ccccc1 (stereo not drawn) | 86.5 µM (inactive) | 58.1 µM (inactive) | 79.8 | 44.7 µM (inactive) | > 100 µM (inactive) | > 100 µM (inactive) | 83.2 µM (inactive) | > 100 µM (inactive) | 72.9 µM (inactive) | 68.7 µM (inactive) | 35.3 µM (inactive) | 40.7 µM (inactive) | 20.1 µM (inactive) | > 100 µM (inactive) | 30.3 µM (inactive) | 53.6 µM (inactive) |  |  |  | 
3 | COc1ccccc1/C=C1\CCC(CCN2CCOCC2)C1=O (stereo not drawn) | > 100 µM (inactive) | 34 µM (inactive) | 91.8 | 41.1 µM (inactive) | > 100 µM (inactive) | > 100 µM (inactive) | > 100 µM (inactive) | > 100 µM (inactive) | 75.2 µM (inactive) | 90.4 µM (inactive) |  | 70.8 µM (inactive) | > 100 µM (inactive) | 93.1 µM (inactive) |  | 68.1 µM (inactive) |  |  |  | 
4 | Oc1cc(-c2ccccc2)nc2cc3c(cc12)OCO3 |  | 11 µM (inactive) | 18.8 | 4.06 µM (inactive) | 8.57 µM (inactive) | 1.54 µM (inactive) | 3.72 µM (inactive) | 9.55 µM (inactive) | 15.2 µM (inactive) | 13.1 µM (inactive) | 3.93 µM (inactive) | 8 µM (inactive) | 3.36 µM (inactive) | 39 µM (inactive) | 29.2 µM (inactive) | 3.52 µM (inactive) | 85.5 µM (inactive) | 30.2 µM (inactive) | 42.1 µM (inactive) | 
5 | CC(C)(C)N/N=N/c1cn(C2OC(CO)C(O)C2O)c(=O)[nH]c1=O (stereo not drawn) | > 100 µM (inactive) | 20 µM (inactive) | 43.5 | 40.7 µM (inactive) | > 100 µM (inactive) | > 100 µM (inactive) | > 100 µM (inactive) | > 100 µM (inactive) | > 100 µM (inactive) | > 100 µM (inactive) | > 100 µM (inactive) | 40.7 µM (inactive) | 20.8 µM (inactive) | > 100 µM (inactive) |  | > 100 µM (inactive) |  |  |  | 
6 | COC(=O)C(CCC1(C)OCCO1)C(C)=O (stereo not drawn) |  |  | > 100 | > 100 µM (inactive) | > 100 µM (inactive) | > 100 µM (inactive) | > 100 µM (inactive) | > 100 µM (inactive) | > 100 µM (inactive) | > 100 µM (inactive) | > 100 µM (inactive) | > 100 µM (inactive) | 84.3 µM (inactive) | > 100 µM (inactive) | > 100 µM (inactive) | > 100 µM (inactive) |  |  |  | 
7 | CCCCOC(=O)CNC(=O)OCCCCC#CC#CCCCCOC(=O)NCC(=O)OCCCC | > 100 µM (inactive) | > 100 µM (inactive) |  | > 100 µM (inactive) | > 100 µM (inactive) | > 100 µM (inactive) | > 100 µM (inactive) | > 100 µM (inactive) | > 100 µM (inactive) | > 100 µM (inactive) | 76.7 µM (inactive) | > 100 µM (inactive) | > 100 µM (inactive) | > 100 µM (inactive) | > 100 µM (inactive) | > 100 µM (inactive) |  |  |  | 
8 | CCOP(=O)(OCC)OC1C=CC2CCC1C2 (stereo not drawn) | > 100 µM (inactive) | 28.1 µM (inactive) | 20.7 | > 100 µM (inactive) | > 100 µM (inactive) | > 100 µM (inactive) | > 100 µM (inactive) | > 100 µM (inactive) | > 100 µM (inactive) | > 100 µM (inactive) | > 100 µM (inactive) | > 100 µM (inactive) | 26.6 µM (inactive) | > 100 µM (inactive) | > 100 µM (inactive) | > 100 µM (inactive) |  |  |  | 
9 | CC[C@H](C)[C@@H]1OC(=O)[C@@H](C)[C@@H](CC)NC(=O)[C@H](C)NC(=O)C(C)(C)C(=O)[C@H](C)NC(=O)[C@H](Cc2ccc(OC)cc2)N(C)C(=O)[C@H](C(C)C)N(C)C(=O)CNC(=O)[C@H](CC(C)C)N(C)C(=O)CNC1=O [DOLASTATIN 11] (cyclo(A[X55]G[NMeL]G[NMeV][NMeY](Me)[X31])) | 0.034 µM (active) | 0.115 µM (active) | 0.67 | 0.0885 µM (active) | 0.0838 µM (active) | 0.4 µM (active) | 0.0514 µM (active) | 0.0497 µM (active) | 0.0327 µM (active) | 0.169 µM (active) | 0.00607 µM (active) | 0.154 µM (active) | 0.0355 µM (active) | 0.0713 µM (active) | 0.0158 µM (active) | 0.0247 µM (active) | 0.0632 µM (active) | 0.0849 µM (active) | 0.448 µM (active) | 0.0603 µM (active)
10 | S=C(Nc1ccccc1)N1N=C2c3ccccc3CC[C@H]2[C@@H]1c1ccccc1 |  | 4.34 µM (inactive) | 2.02 | 0.607 µM (active) |  | 2.79 µM (inactive) | 0.708 µM (active) | 4.22 µM (inactive) | 6.78 µM (inactive) | 13.2 µM (inactive) | 0.581 µM (active) | > 100 µM (inactive) | 0.248 µM (active) | > 100 µM (inactive) | 7.59 µM (inactive) |  |  |  |  | 
11 | O=C1C=CC(=CC=C2C=CN(CCCCCCCCCCC(=O)NCCCCCCCCCCCC(=O)O)C=C2)C=C1 | > 100 µM (inactive) | > 100 µM (inactive) | > 100 | > 100 µM (inactive) | > 100 µM (inactive) | > 100 µM (inactive) | > 100 µM (inactive) | > 100 µM (inactive) | > 100 µM (inactive) | > 100 µM (inactive) | > 100 µM (inactive) | > 100 µM (inactive) | > 100 µM (inactive) | > 100 µM (inactive) | > 100 µM (inactive) | > 100 µM (inactive) |  |  |  | 
